Results: article PMC4540177 (Bioorganic & medicinal chemistry letters, 2013)

Tests used:
Mouse brain penetration = type: in vivo, C57Bl6 mice
Rat pharmacokinetics = type: in vivo, Sprague-Dawley rats

SMILES | brain penetration (in words) (Mouse brain penetration) | half live (in words) (Rat pharmacokinetics; rat) | oral exposure (in words) (Rat pharmacokinetics; rat) | in vivo properties (in words) (Rat pharmacokinetics; rat pk)
Cc1ncn(-c2ccc(Nc3cc(-c4nocc4-c4cnn(C)c4)ccn3)cc2)n1 [Compound 27] | poor brain penetration | short half live | good oral exposure | 
Cc1ncn(-c2ccc(Nc3cc(-c4nocc4-c4cn[nH]c4C)ccn3)cc2)n1 [Compound 28] |  |  |  | poor in vivo properties
